Source: patent US20250214962A1, “PYRIDINONE DERIVATIVES AS SELECTIVE CYTOTOXIC AGENTS AGAINST HIV INFECTED CELLS” (Merck Sharp & Dohme LLC, priority 2019, published 2025)

Assays:
[1] = system: infected PBMCs (VSV-G pseudotyped HIV virus); assay: cells; format: cell-based, human; details: Homo sapiens, PBMC, read-out: SMACK EC50_50% NHS
[2] = Viking EC50, 50% NHS; format: cell-based; details: method not described, read-out: Viking EC50_50% NHS

Compound | EC50 [1] [nM] | EC50 [2] [nM]
Cc1c(C#N)cc(C(F)F)cc1Oc1c(C(F)(F)C(F)F)ncn(Cc2ccc(-c3cn[nH]c3)[nH]c2=O)c1=O [Example 27, 5-(difluoromethyl)-3-((1-((2-hydroxy-6-(1H-pyrazol-4-yl)pyridin-3-yl)methyl)-6-oxo-4-(1,1,2,2-tetrafluoroethyl)-1,6-dihydropyrimidin-5-yl)oxy)-2-methylbenzonitrile] | 292 | 77.2
Cc1c(C#N)cc(C(F)F)cc1Oc1c(C(F)(F)C(F)(F)F)ncn(Cc2ccc[nH]c2=O)c1=O [Example 23, 5-(Difluoromethyl)-2-Methyl-3-((6-Oxo-1-((2-Oxo-1,2-Dihydropyridin-3-Yl)Methyl)-4-(Perfluoroethyl)-1,6-Dihydropyrimidin-5-Yl)Oxy)Benzonitrile] | 234 | 53
Cc1c(C#N)cc(C(F)F)cc1Oc1c(C(F)(F)C(F)F)ncn(Cc2cc(F)c[nH]c2=O)c1=O [Example 14, 5-(Difluoromethyl)-3-((1-((5-Fluoro-2-Oxo-1,2-Dihydropyridin-3-Yl)Methyl)-6-Oxo-4-(1,1,2,2-Tetrafluoroethyl)-1,6-Dihydropyrimidin-5-Yl)Oxy)-2-Methylbenzonitrile] | 101 | 29.5
Cc1c(C#N)cc(Cl)cc1Oc1c(C(F)(F)F)ncn(Cc2ccc(-c3cc[nH]n3)[nH]c2=O)c1=O [Example 13, 5-chloro-2-methyl-3-((6-oxo-1-((2-oxo-6-(1H-pyrazol-3-yl)-1,2-dihydropyridin-3-yl)methyl)-4-(trifluoromethyl)-1,6-dihydropyrimidin-5-yl)oxy)benzonitrile] | 296 | 343
